From ChEMBL document CHEMBL1201862, “PubChem BioAssay data set” (2004)
Activity calls are given as the source filed them.

Columns and labels:
[1] = target: T1, DNA repair and recombination protein RAD54-like (Homo sapiens, UniProt Q92698); experiment: inhibitors of human RAD54 branch migration, confirmation, biochemical, fluorescence, cherry-picked samples, dose series (AID 651657); assay type: functional
T1 sequence (Q92698 whole entry): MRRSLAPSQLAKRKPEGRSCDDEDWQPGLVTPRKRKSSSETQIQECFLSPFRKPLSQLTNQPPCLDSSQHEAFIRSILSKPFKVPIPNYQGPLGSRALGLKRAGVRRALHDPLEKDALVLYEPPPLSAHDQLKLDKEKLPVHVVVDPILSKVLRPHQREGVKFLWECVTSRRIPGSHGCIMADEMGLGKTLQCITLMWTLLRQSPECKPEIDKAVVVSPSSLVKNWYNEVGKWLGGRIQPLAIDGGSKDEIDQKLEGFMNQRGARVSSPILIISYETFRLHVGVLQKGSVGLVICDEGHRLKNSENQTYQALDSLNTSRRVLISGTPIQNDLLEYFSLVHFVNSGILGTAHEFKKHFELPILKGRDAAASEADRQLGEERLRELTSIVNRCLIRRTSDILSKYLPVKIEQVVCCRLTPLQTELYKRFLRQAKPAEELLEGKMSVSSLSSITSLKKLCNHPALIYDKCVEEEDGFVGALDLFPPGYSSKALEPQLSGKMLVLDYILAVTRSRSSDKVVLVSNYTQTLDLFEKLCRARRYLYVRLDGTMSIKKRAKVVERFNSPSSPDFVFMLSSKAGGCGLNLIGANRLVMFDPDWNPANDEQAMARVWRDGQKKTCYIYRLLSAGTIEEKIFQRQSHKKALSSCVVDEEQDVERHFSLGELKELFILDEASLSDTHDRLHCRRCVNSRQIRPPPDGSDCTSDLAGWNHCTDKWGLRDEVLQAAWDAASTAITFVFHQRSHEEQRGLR

Protein S100-A4 = Protein S100-A4 (Homo sapiens, UniProt P26447); experiment: S100A4-myosin IIA binding inhibitor potency, dose response, biochemical, fluorescence polarization, cherry-picked hits (AID 687001); assay type: functional
Sequence of Protein S100-A4 (P26447 whole entry): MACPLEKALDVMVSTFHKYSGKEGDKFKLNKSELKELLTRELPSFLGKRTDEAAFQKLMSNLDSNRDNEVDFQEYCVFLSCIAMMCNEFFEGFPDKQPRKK

[2] = target: T2, DNA repair protein RAD52 homolog (Homo sapiens, UniProt P43351); assay type: functional, biochemical
T2 sequence (P43351 whole entry): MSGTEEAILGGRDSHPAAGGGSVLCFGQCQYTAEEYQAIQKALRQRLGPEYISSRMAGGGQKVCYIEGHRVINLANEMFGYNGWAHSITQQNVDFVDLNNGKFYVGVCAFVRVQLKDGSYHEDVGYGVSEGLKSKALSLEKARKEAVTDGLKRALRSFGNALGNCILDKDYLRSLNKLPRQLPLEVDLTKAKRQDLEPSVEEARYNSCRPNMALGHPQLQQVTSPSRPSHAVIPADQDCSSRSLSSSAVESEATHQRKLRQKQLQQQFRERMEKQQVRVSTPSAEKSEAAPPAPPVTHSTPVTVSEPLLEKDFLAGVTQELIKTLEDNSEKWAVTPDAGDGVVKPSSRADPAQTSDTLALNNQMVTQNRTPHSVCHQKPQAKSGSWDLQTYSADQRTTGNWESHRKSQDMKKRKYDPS

[3] = target: ATP-dependent translocase ABCB1 (Homo sapiens, UniProt P08183); experiment: ABCB1 efflux pump inhibitor potency, dose response, Jurkat-DNR cells, JC-1, flow cytometry (AID 1689); assay type: functional
Sequence of ATP-dependent translocase ABCB1 (P08183 whole entry): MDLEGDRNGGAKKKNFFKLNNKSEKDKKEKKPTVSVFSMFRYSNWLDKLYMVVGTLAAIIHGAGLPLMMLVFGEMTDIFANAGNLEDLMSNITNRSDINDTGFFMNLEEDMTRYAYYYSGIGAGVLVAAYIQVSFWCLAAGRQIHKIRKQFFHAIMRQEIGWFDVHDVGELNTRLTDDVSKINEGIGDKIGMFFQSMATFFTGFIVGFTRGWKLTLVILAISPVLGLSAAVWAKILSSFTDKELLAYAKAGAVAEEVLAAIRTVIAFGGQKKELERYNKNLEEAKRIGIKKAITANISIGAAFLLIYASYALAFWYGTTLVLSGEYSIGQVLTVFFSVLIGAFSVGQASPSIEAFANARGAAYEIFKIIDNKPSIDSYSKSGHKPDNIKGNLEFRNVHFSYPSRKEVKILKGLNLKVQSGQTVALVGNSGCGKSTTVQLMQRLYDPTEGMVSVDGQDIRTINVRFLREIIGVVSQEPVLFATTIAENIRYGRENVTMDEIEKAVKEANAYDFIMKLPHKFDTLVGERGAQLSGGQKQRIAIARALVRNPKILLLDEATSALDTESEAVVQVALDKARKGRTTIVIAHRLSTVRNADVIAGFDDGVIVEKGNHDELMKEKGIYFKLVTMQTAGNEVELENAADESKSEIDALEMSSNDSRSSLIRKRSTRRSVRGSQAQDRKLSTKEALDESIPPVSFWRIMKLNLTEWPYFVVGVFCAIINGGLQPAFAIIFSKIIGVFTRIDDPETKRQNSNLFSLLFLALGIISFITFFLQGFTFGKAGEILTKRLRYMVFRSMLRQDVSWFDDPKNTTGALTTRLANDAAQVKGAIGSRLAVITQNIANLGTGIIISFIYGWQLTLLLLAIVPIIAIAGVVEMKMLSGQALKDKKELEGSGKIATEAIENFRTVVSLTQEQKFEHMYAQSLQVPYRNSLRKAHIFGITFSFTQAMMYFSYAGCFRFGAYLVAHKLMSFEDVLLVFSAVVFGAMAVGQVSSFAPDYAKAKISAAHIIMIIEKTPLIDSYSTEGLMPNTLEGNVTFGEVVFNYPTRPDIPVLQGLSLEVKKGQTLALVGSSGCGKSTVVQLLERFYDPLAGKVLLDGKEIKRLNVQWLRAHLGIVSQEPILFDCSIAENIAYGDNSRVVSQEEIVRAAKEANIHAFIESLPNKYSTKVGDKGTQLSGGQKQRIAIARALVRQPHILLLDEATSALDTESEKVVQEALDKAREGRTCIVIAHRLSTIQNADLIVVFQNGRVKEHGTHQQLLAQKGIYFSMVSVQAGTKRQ

[4] = target: Broad substrate specificity ATP-binding cassette transporter ABCG2 (Homo sapiens, UniProt Q9UNQ0); experiment: ABCG2 efflux pump inhibitors, dose response, Ig-MXP3 cells, flow cytometry (AID 1690); assay type: functional
Beta-lactamase [5] = target: T3, Beta-lactamase (Salmonella choleraesuis (strain SC-B67), UniProt Q5J463); experiment: Epi-absorbance-based counterscreen for selective VIM-2 inhibitors: dose response biochemical high throughput screening assay to identify inhibitors of TEM-1 serine-beta-lactamase.
T3 sequence (Q5J463 whole entry): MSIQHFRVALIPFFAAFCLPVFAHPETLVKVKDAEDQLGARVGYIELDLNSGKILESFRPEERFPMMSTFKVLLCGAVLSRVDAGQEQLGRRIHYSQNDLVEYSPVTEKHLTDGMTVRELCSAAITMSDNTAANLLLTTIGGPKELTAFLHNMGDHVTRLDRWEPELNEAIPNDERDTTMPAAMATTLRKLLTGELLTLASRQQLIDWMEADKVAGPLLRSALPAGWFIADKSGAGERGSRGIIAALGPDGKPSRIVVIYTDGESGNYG

Beta-lactamase [6] = target: T4, Beta-lactamase (Pseudomonas aeruginosa, UniProt Q79MP6); experiment: IMP-1 metallo-beta-lactamase inhibitors, dose response, selectivity assay for VIM-2 inhibitor project, biochemical, epi-absorbance (AID 1920)
T4 sequence (Q79MP6 whole entry): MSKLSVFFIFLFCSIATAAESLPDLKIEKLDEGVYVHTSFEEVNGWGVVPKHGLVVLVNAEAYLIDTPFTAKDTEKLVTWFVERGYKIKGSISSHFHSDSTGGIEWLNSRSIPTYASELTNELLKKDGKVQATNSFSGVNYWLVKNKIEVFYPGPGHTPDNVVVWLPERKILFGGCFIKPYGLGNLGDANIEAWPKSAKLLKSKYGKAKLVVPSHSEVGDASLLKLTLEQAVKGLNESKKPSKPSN

Beta-lactamase [7] = target: T4, Beta-lactamase; experiment: […] counterscreen for selective VIM-2 inhibitors: dose response biochemical high throughput screening assay to identify inhibitors of IMP-1 metallo-beta-lactamase.
Beta Lactamase = Beta Lactamase (Pseudomonas aeruginosa, UniProt Q932Y6);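 further: confirmatory high-throughput screen measuring VIM-2 metallo-beta-lactamase inhibition by epi-absorbance in dose response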
Sequence of Beta Lactamase (Q932Y6 whole entry): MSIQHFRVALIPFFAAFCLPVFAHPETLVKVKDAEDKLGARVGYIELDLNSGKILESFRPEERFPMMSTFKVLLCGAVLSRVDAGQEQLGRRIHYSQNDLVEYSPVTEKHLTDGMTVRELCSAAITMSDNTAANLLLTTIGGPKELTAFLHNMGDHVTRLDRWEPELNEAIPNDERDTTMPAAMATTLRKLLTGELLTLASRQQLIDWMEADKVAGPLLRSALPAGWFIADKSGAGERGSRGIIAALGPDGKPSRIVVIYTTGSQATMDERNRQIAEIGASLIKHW

Beta-lactamase [8] = target: T4, Beta-lactamase
Beta-lactamase [9] = target: T3, Beta-lactamase
[10] = target: T5, Sentrin-specific protease 1 (Homo sapiens, UniProt Q9P0U3); experiment: potency of human SENP1 inhibitors, dose response, biochemical, kinetic FRET (AID 651697); assay type: functional; details: read-out: IC50_Mean
T5 sequence (Q9P0U3 whole entry): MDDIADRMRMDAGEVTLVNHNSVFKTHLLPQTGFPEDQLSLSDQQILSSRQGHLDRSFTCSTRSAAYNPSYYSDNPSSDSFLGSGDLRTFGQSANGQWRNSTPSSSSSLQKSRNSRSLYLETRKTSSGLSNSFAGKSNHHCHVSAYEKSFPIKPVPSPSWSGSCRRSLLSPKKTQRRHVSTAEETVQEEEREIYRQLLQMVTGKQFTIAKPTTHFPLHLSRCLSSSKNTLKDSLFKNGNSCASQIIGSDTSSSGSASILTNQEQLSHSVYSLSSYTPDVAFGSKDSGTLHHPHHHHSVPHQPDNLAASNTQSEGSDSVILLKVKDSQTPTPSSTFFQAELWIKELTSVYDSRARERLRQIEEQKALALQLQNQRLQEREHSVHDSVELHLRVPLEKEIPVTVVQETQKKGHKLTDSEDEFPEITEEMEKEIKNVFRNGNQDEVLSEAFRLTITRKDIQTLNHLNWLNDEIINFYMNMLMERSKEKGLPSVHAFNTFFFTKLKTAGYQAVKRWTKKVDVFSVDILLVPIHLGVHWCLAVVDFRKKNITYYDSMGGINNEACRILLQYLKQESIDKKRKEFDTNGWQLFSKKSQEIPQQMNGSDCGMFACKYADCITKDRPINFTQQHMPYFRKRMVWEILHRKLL

[11] = target: T5, Sentrin-specific protease 1; experiment: Dose response confirmation of small molecule inhibitors of the catalytic domain of the SUMO protease, SENP1 in a FRET assay.; assay type: functional; details: read-out: IC50_Mean
[12] = target: T6, Dual specificity protein phosphatase 3 (Homo sapiens, UniProt P51452); experiment: VHR1 phosphatase inhibitors, primary screen, biochemical, absorbance, uHTS (AID 1654)
T6 sequence (P51452 whole entry): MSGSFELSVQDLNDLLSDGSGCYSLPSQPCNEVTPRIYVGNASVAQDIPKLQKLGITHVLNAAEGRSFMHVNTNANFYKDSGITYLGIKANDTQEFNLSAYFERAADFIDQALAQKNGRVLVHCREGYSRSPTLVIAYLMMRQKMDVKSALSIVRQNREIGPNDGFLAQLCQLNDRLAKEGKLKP

[13] = target: T6, Dual specificity protein phosphatase 3; experiment: VHR1 phosphatase inhibitors, biochemical (AID 1878)
[14] = target: T7, Dual specificity protein phosphatase 6 (Rattus norvegicus, UniProt Q64346); experiment: MKP-3 phosphatase inhibitors, primary screen, biochemical, rat enzyme, in vitro (AID 425)
T7 sequence (Q64346 whole entry): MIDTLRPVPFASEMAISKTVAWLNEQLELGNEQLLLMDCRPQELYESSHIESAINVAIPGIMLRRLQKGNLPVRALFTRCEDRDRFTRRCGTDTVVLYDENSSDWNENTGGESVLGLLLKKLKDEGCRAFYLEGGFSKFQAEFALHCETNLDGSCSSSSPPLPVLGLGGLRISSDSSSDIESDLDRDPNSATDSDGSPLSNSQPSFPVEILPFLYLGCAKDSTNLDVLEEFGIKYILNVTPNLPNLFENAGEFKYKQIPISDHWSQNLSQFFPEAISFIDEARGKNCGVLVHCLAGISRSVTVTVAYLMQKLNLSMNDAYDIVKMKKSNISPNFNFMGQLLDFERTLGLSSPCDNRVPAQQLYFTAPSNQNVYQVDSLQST

Genome polyprotein = Genome polyprotein (dengue virus type 2, UniProt P29990); experiment: Dengue-2 NS5 methyltransferase inhibitors, primary screen, biochemical, confirmation dose response (AID 588689); assay type: functional
Sequence of Genome polyprotein (P29990 2492-3391 limits assumed): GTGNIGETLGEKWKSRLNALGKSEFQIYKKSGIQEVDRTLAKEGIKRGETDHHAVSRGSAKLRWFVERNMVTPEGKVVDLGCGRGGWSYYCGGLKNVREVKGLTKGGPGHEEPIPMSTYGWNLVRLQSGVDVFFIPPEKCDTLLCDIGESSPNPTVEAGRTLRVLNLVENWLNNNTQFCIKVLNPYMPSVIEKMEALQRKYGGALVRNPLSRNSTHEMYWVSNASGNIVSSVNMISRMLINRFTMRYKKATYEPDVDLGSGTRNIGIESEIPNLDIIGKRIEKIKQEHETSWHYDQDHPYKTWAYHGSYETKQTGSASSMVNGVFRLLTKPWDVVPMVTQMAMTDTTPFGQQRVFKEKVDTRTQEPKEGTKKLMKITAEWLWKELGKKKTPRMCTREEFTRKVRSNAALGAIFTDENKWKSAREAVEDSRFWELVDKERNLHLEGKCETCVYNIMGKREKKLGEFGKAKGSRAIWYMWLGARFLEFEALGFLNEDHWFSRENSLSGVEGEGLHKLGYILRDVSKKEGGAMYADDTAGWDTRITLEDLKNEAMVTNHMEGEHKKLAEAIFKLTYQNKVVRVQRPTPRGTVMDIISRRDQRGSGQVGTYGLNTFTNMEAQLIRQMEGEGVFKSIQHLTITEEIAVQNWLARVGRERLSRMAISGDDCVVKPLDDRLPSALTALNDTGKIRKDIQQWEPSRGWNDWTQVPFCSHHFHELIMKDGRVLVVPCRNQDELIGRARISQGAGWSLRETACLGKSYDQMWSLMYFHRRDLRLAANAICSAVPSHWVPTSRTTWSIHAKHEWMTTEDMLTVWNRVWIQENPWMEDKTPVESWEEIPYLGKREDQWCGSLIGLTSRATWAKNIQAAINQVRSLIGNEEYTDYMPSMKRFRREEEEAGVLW

[15] = target: T8, Carboxy-terminal domain RNA polymerase II polypeptide A small phosphatase 1 (Homo sapiens, UniProt Q9GZU7); experiment: inhibitors of CTDSP1, concentration-response testing, biochemical assay, absorbance-based, actives from ultra-high-throughput screening (AID 540297); assay type: functional
T8 sequence (Q9GZU7 whole entry): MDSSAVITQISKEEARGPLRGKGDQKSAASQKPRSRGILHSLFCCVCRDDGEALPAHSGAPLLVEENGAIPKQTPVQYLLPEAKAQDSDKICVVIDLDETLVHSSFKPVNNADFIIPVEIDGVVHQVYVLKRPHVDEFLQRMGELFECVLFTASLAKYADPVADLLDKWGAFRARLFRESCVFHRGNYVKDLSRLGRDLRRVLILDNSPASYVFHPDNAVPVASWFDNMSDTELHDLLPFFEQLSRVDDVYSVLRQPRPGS

[16] = target: Tyrosine-protein phosphatase non-receptor type 11 (Homo sapiens, UniProt Q06124); experiment: SHP2 phosphatase inhibition, dose response, selectivity assay for STEP inhibitor project, biochemical (AID 602367); assay type: functional; details: read-out: IC50_Mean
Sequence of Tyrosine-protein phosphatase non-receptor type 11 (Q06124 whole entry): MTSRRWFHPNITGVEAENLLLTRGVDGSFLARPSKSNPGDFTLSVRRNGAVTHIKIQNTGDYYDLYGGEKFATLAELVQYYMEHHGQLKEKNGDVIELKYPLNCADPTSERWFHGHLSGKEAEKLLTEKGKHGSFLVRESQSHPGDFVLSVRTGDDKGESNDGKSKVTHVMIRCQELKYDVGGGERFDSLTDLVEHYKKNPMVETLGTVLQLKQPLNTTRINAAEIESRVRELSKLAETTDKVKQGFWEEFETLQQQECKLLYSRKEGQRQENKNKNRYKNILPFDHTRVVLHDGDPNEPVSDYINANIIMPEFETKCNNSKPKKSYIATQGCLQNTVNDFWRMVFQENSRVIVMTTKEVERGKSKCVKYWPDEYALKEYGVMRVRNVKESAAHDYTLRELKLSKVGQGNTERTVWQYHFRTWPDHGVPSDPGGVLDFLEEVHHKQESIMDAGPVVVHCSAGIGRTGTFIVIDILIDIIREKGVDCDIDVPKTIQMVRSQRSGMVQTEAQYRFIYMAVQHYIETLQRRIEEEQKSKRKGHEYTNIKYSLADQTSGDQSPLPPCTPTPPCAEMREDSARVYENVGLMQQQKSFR

[17] = target: Tyrosine-protein phosphatase non-receptor type 5 (Homo sapiens, UniProt P54829); experiment: STEP phosphatase inhibitors, confirmation, biochemical, fluorescence intensity, uHTS hits (AID 602372); assay type: functional; details: read-out: IC50_Mean
Sequence of Tyrosine-protein phosphatase non-receptor type 5 (P54829 whole entry): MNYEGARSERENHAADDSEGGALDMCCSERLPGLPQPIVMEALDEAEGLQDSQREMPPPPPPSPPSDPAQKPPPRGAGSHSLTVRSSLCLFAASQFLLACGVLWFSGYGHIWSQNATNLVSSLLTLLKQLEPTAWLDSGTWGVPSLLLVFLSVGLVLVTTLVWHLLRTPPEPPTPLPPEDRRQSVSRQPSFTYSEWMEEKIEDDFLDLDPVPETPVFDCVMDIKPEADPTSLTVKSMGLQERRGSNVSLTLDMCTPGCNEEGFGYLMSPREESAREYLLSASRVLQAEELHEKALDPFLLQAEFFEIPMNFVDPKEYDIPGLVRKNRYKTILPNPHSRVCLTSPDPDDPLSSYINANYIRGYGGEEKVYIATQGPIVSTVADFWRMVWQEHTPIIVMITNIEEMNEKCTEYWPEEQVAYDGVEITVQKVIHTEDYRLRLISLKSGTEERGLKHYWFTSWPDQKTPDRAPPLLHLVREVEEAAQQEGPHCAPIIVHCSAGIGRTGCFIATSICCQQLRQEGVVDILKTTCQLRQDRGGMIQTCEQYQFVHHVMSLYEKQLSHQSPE

[18] = target: T6, Dual specificity protein phosphatase 3; experiment: VHR phosphatase inhibition, dose response, selectivity assay for STEP inhibitor project, biochemical (AID 602374); assay type: functional; details: read-out: IC50_Mean
[19] = target: T9, Small ubiquitin-related modifier 1 (Homo sapiens, UniProt P63165); experiment: inhibitors of SUMO1 peptide binding, dose response, biochemical, fluorescence polarization, uHTS hits (AID 624382); assay type: functional; details: read-out: IC50_Mean
T9 sequence (P63165 whole entry): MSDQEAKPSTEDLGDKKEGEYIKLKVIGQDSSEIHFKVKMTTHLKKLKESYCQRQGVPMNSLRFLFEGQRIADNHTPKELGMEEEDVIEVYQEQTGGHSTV

[20] = target: T10, Low molecular weight phosphotyrosine protein phosphatase (Homo sapiens, UniProt P24666); assay type: functional; details: read-out: IC50_Mean
T10 sequence (P24666 whole entry): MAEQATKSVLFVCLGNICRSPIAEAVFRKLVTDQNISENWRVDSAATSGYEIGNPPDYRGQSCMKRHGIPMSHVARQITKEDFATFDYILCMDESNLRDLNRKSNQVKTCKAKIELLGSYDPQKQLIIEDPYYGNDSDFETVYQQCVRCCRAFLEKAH

[21] = target: T9, Small ubiquitin-related modifier 1; experiment: inhibitors of SUMO1 partner interactions, dose response, biochemical, FRET (AID 624383); assay type: functional; details: read-out: IC50_Mean
[22] = target: T11, Tyrosine-protein phosphatase non-receptor type 22 (Homo sapiens, UniProt Q9Y2R2); experiment: PTPN22 phosphatase inhibition, dose response, selectivity assay for STEP inhibitor project, biochemical (AID 624241); assay type: functional
T11 sequence (Q9Y2R2 whole entry): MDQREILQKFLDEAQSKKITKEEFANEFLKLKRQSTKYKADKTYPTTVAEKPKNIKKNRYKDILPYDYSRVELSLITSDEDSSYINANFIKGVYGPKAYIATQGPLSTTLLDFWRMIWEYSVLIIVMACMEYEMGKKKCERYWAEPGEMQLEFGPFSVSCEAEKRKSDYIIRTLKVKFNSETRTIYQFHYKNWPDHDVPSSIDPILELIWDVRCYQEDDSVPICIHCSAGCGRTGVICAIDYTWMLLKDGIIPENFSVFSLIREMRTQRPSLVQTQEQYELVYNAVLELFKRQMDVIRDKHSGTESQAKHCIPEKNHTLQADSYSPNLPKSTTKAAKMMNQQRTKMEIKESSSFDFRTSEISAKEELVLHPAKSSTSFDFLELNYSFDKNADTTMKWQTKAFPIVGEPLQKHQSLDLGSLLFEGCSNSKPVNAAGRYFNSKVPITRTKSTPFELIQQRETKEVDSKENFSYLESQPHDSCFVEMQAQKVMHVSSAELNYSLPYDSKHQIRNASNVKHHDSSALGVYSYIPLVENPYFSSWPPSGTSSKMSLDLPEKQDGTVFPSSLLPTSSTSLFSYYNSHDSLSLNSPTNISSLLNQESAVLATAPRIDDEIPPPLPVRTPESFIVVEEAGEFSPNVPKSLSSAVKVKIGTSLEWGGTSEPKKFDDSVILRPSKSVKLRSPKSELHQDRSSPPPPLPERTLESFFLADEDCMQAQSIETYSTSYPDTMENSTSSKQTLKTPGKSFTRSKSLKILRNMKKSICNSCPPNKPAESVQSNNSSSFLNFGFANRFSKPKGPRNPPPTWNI

[23] = target: T10, Low molecular weight phosphotyrosine protein phosphatase; assay type: functional; details: read-out: IC50_Mean; remark: listed apart in the source
Caspase-6 = target: T12, Caspase-6 (Homo sapiens, UniProt P55212); experiment: human caspase-6 inhibitors, dose response, biochemical, VEID-R110 fluorescence, cherry-pick (AID 720632)
T12 sequence (P55212 whole entry): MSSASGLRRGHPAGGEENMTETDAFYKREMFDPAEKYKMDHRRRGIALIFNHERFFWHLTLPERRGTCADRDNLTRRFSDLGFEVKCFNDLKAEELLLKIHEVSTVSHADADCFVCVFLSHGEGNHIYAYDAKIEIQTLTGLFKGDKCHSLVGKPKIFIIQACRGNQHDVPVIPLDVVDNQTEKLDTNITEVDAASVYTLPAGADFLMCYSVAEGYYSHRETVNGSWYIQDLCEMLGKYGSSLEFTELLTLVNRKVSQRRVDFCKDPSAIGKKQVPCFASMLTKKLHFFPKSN

Cc1cccc(-c2cc(N3CCCN(C)CC3)n3nccc3n2)c1
AC50 [1]: 24 µM (active) | AC50 (Protein S100-A4): 7.12 µM (active) | AC50 [2]: 2.45 µM (active)

COc1ccc(/C=N/NC(=O)c2ccccc2F)cc1CN1CCN(c2ccc(F)cc2)CC1
EC50 [3]: 3.08 µM (active) | EC50 [4]: 4.07 µM (active)

CCCCn1c(-c2ccoc2C)n[nH]c1=S
IC50 (Beta-lactamase [5]): > 59.6 µM (inactive) | IC50 (Beta-lactamase [6]): > 59.6 µM (inactive) | IC50 (Beta-lactamase [7]): > 59.6 µM (inactive)

O=C1C2C(c3ccccc3)C=CC(c3ccccc3)C2C(=O)N1c1ccccn1 (configuration not stated)
IC50 (Beta Lactamase): 59.6 µM (inactive) | IC50 (Beta-lactamase [8]): 11.5 µM (inactive) | IC50 (Beta-lactamase [9]): > 59.6 µM (inactive) | IC50 [10]: 10.8 µM (active) | IC50 [11]: 7.9 µM (active)

Cc1c(CCC(=O)O)c(=O)oc2c(C)c(OCc3cc4c(cc3Cl)OCO4)ccc12
IC50 [12]: 17.4 µM (active) | IC50 [13]: 2.99 µM (active) | IC50 [14]: 78.7 µM (active) | IC50 (Genome polyprotein): 51.7 µM (active) | IC50 [15]: 3.17 µM (active) | IC50 [16]: 1.51 µM (active) | IC50 [17]: 3.97 µM (active) | IC50 [18]: 1.67 µM (active) | IC50 [19]: > 66.6 µM (inactive) | IC50 [20]: 8.04 µM (active) | IC50 [21]: 10.3 µM (active) | IC50 [22]: 9 µM (active) | IC50 [23]: 24.9 µM (inactive) | AC50 (Caspase-6): 7.15 µM (active)
